# Reference: US12570684B2 (UNIVERSITY OF TENNESSEE RESEARCH FOUNDATION, priority 2020, dated 2026)
# System: PD002
# Test: Kinetic proliferation assay (IncuCyte)
# Assay type: cell-based
# Experimental: Kinetic Proliferation Assay. To study the effect of treatment with DPAGT1 inhibitors on the growth and proliferation of cells, a fixed number of cells (2×10^4) were plated in multiple wells of a 96 well plate, incubated for 24 h to let cells settle down. Then, CPPB (5) was added (0-50 μM). Images were obtained every 4 h using an IncuCyte Live-Cell Imaging System (Essen BioScience, Ann Arbor, MI). After 72 h, cell proliferation was quantified using the metric phase object confluence (POC), a measurement of the area of the field of view that is covered by cells, which is calculated by the integrated software.
substance,measurement,setting,value
"(2S,3S,4S)-2-((1R)-2-Amino-1-((2S,5R)-5-(2,4-dioxo-3,4-dihydropyrimidin-1(2H)-yl)-4-hydroxy-3-methoxytetrahydrofuran-2-yl)-2-oxoethoxy)-3,4-dihydroxy-N-(4-(4-(4-(trifluoromethoxy)-phenyl)piperidin-1-yl)benzyl)-3,4-dihydro-2H-pyran-6-carboxamide [CPPB]",phase area confluence of PD002 culture after 72 h,"50 μM, same as at time 0 h, control (PBS) ca. 70%",10-13%
same,cell proliferation inhibited at time 72 h,0.2-20 μM,ca. 20%
